The source of these data is patent US11999759B2, “Boronic acid derivatives and therapeutic uses thereof” (Qpex Biopharma, Inc., priority 2016, dated 2024).

Each structure is given as a SMILES string.

In series [1] the target is NDM-1 (Klebsiella pneumoniae, UniProt C7C422). The series is described as follows: Inhibition of imipenem cleavage by purified NDM-1. It is filed as biochemical. The conditions noted are these: imipenem reporter substrate; 37° C.; read-out: Ki (NDM-1, IMI). On the procedure:
Purified enzymes were mixed with various concentrations of inhibitors in reaction buffer and incubated for 10 min at room temperature. Imipenem was added and substrate cleavage profiles were recorded at 294 nm every 30 seconds for 30 minutes at 37° C.

The target of series [2] is KPC-2 (Klebsiella pneumoniae, UniProt Q9F663). The series is described as follows: Inhibition of nitrocefin cleavage by purified KPC-2. The class given is biochemical. The conditions noted are these: nitrocefin reporter substrate; 10 min preincubation at room temperature; read-out: Ki (KPC-2, NCF). On the procedure:
(§1) Ki values of inhibition of purified class A, C and D enzymes were determined spectrophotometrically using nitrocefin as reporter substrate. Purified enzymes were mixed with various concentrations of inhibitors in reaction buffer and incubated for 10 min at room temperature. Nitrocefin was added and substrate cleavage profiles were recorded at 490 nm every 10 sec for 10 min. These experiments confirmed that the described compounds are inhibitors with a broad-spectrum of activity towards various β-lactamases.

Series [3] deals with OXA-23 (Acinetobacter baumannii, UniProt Q9L4P2). The series is described as follows: Inhibition of nitrocefin cleavage by purified OXA-23. The class given is biochemical. The conditions noted are these: nitrocefin reporter substrate; 10 min preincubation at room temperature; read-out: Ki (OXA-23, NCF). On the procedure: as §1
Series [4] concerns the target CTX-M-14 (Escherichia coli, UniProt Q9L5C7). The series is described as follows: Inhibition of nitrocefin cleavage by purified CTX-M-14. The class given is biochemical. The conditions noted are these: nitrocefin reporter substrate; 10 min preincubation at room temperature; read-out: Ki (CTX-M-14, NCF). On the procedure:
(§2) Ki values of inhibition of purified class A, C and D enzymes were determined spectrophotometrically using nitrocefin as reporter substrate. Purified enzymes were mixed with various concentrations of inhibitors in reaction buffer and incubated for 10 min at room temperature. Nitrocefin was added and substrate cleavage profiles were recorded at 490 nm every 10 sec for 10 min.

In series [5] the target is VIM-1 (Pseudomonas aeruginosa, UniProt A0A0F7KYQ8). The series is described as follows: Inhibition of nitrocefin cleavage by purified VIM-1. The class given is biochemical. The conditions noted are these: nitrocefin reporter substrate; 10 min preincubation at room temperature; read-out: Ki (VIM-1, NCF).
The target of series [6] is OXA-48 (Klebsiella pneumoniae, UniProt Q6XEC0). The series is described as follows: Inhibition of nitrocefin cleavage by purified OXA-48. The conditions noted are these: nitrocefin reporter substrate; 10 min preincubation at room temperature; read-out: Ki (OXA-48, NCF). The class given is biochemical. On the procedure: as §1
For series [7], the system named is PAM1154/KPC-2 (lacked MexAB-OprM). The series is described as follows: Biapenem potentiation (MPC64) in PAM1154/KPC-2. The class given is cell-based, Pseudomonas aeruginosa. Also noted: PAM1154/KPC-2 Biapenem MPC64: unit not given here. Particulars: BLI potency to decrease biapenem MIC 64-fold, from 32 to 0.5 μg/ml; efflux deficient strain. On the procedure:
(§3) Efflux of BLIs from Pseudomonas aeruginosa by the MexAB-OprM efflux pump was also evaluated. The plasmid expressing the gene encoding KPC-2 was introduced into two strains of P. aeruginosa, PAM1032 and PAM1154 that overexpressed or lacked MexAB-OprM, respectively. Due to expression of KPC-2 both strains became resistant to biapenem. […] Potency of BLIs to potentiate biapenem in these strains was determined. […] The ratio of MPC64 values for each BLI in PAM1032/KPC-2 (efflux proficient) and PAM1154/KPC-2 (efflux deficient) was determined to generate the Efflux Index (EI) as shown in Table 8.

Series [8] concerns PAM1032/KPC-2 (overexpressed MexAB-OprM). The series is described as follows: Biapenem potentiation (MPC64) in PAM1032/KPC-2. Also noted: PAM1032/KPC-2 Biapenem MPC64: unit not given here. Particulars: BLI potency to decrease biapenem MIC 64-fold, from 32 to 0.5 μg/ml; efflux proficient strain. It is filed as cell-based, Pseudomonas aeruginosa. On the procedure: as §3
In series [9] the target is Pa-AmpC (Pseudomonas aeruginosa, UniProt P24735). The series is described as follows: biochemical. The conditions noted are these: nitrocefin reporter substrate; 10 min preincubation at room temperature; read-out: Ki (Pa-AmpC, NCF). On the procedure:
as §2

Series [10] addresses P99 (Enterobacter cloacae, UniProt P05364). The series is described as follows: biochemical. Particulars: nitrocefin reporter substrate; 10 min preincubation at room temperature; read-out: Ki (P99, NCF). On the procedure:
as §2

For series [11], the target named is IMP-1 (Serratia marcescens, UniProt P52699). The series is described as follows: Inhibition of imipenem cleavage by purified IMP-1. It is filed as biochemical. The conditions noted are these: imipenem reporter substrate; 37° C.; read-out: Ki (IMP-1, IMI). On the procedure:
Ki values of inhibition of purified class B enzymes NDM-1 and IMP-1 were determined spectrophotometrically using imipenem as reporter substrate. Purified enzymes were mixed with various concentrations of inhibitors in reaction buffer and incubated for 10 min at room temperature. Imipenem was added and substrate cleavage profiles were recorded at 294 nm every 30 seconds for 30 minutes at 37° C. These experiments further confirmed that the described compounds have the ability to inhibit carbapenemase activity of metallo-beta-lactamases.

Series [12] can be described thus: Stability of compound 13 prodrugs in human serum. It is filed as in vitro ADME. Particulars: 37° C., prodrug 50.0 μg/mL. On the procedure: The rate of hydrolysis for several prodrugs of 13 was evaluated in vitro by measuring their stability in human serum and human liver microsomes. All serum stability experiments were conducted by aliquoting 10 μL of test compound at 500 μg/mL (10× final concentration) in 95:5 water:acetonitrile v/v into 1.5 mL Eppendorf tubes. […] The tubes were then warmed to 37° C. in a water bath along with human serum (Bioreclamations) in a separate tube. Serum esterase activity for each lot of serum used was established by assaying an unrelated ester prodrug as a control. To initiate the reaction, 90 μL of serum was added to tubes for all timepoints using a repeating-tip pipette, thereby bringing the final concentration of test compound to 50 μg/mL and the final concentration of acetonitrile to 0.5% v/v. At each timepoint, the reaction was halted and serum proteins precipitated through the addition of an equal volume of cold acetonitrile containing 25 μg/mL diclofenac as an internal standard. […] Sample analysis for serum stability experiments was conducted using an Agilent 1100 binary pump HPLC equipped with a diode array detector set to monitor absorbance at 286 nm (8 nm bandwidth). […] The samples were analyzed together with appropriate blanks in order to ensure specificity. […] The rate of activation was determined by monitoring the concentration of test compound as follows. The peak area for the analyte was divided by the peak area for the internal standard to give an area ratio. The area ratio for each timepoint was divided by the area ratio for timepoint 0 to give the percent remaining at each timepoint. The natural logarithm of the percent remaining versus time was plotted using Microsoft Excel and fitted to a linear trendline.

Pa-AmpC, sequence (P24735 27-397): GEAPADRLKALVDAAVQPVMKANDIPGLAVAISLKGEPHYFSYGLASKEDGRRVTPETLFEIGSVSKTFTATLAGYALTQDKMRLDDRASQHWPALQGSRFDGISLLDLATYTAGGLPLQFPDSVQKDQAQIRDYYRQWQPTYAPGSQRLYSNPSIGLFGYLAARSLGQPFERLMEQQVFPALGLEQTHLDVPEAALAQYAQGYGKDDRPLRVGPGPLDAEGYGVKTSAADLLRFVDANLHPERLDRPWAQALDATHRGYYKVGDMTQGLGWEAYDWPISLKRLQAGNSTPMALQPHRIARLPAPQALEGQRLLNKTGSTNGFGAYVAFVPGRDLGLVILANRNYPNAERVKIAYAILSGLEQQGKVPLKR
OXA-23, sequence (Q9L4P2 18-273): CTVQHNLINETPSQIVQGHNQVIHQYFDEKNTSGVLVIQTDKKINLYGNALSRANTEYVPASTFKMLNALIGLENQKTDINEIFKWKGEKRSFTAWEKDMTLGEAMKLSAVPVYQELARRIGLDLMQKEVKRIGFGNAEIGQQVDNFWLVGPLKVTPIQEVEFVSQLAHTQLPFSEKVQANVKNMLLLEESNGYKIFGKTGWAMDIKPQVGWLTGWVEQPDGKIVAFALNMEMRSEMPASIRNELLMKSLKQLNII
IMP-1, sequence (P52699 19-246, looked up, species assumed): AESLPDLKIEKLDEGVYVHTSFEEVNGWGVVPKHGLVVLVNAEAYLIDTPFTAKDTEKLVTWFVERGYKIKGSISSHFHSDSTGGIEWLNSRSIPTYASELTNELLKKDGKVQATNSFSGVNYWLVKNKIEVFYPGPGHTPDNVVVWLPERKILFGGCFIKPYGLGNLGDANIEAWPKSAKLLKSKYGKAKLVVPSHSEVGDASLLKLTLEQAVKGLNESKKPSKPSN
CTX-M-14, sequence (Q9L5C7 29-291, species assumed): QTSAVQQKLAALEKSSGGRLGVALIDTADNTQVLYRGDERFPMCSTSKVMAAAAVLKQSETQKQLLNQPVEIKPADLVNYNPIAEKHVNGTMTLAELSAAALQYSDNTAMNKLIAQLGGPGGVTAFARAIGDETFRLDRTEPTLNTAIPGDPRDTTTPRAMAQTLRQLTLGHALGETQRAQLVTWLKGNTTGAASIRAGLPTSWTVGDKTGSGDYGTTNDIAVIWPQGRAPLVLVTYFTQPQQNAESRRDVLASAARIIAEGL
KPC-2, sequence (Q9F663 25-293 limits assumed): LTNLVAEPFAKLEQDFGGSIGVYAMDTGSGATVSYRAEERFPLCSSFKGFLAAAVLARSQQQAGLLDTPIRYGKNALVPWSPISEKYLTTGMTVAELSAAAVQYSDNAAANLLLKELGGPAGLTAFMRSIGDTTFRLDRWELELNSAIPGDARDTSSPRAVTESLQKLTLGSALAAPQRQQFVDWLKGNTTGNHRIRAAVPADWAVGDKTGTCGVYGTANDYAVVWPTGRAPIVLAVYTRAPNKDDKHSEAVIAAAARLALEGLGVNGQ
OXA-48, sequence (Q6XEC0 23-265, looked up): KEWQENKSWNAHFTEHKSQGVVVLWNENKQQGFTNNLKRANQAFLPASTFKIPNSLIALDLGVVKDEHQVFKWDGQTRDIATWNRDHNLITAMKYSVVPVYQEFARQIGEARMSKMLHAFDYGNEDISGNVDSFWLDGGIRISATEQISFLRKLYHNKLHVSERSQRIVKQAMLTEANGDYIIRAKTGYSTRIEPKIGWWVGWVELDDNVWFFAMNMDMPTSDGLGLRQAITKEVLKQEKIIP
P99, sequence (P05364 21-381): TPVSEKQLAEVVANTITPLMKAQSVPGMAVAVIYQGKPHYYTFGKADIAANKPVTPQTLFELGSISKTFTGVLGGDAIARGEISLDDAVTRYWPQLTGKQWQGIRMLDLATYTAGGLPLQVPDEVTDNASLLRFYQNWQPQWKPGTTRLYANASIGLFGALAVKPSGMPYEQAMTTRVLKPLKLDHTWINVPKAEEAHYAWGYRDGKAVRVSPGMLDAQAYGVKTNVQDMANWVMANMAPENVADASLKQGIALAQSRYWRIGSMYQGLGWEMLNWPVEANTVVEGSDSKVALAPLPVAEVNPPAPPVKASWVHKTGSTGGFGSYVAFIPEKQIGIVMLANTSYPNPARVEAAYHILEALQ
NDM-1, sequence (C7C422 29-270, looked up, species assumed): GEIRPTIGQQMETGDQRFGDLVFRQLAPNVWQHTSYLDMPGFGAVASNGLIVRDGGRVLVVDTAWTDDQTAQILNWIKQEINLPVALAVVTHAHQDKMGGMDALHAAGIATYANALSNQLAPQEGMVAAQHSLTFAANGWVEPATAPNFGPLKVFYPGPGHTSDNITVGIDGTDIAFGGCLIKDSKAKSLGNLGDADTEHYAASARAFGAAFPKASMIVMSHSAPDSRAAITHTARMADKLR

Take `COc1ccc2c(c1C(=O)O)OB(O)C1(CO)CC21` (stereo not shown) [Compound 22, 2,2-dihydroxy-1a-(hydroxymethyl)-5-methoxy-1,7b-dihydrocyclopropa[c][1,2]benzoxaborinine-4-carboxylic acid]: the Ki in series [1] was < 100 nM; in series [2], < 100 nM; in series [3] it was > 1000 nM; in series [4] it was < 100 nM; in series [5], < 100 nM; in [6], < 100 nM. Further, the Ki in series [9], in series [10] and in [11] was < 100 nM each time. Moreover, in series [7], the “PAM1154/KPC-2 Biapenem MPC64” value turned out to be 10. In addition, the “PAM1032/KPC-2 Biapenem MPC64” value in series [8] amounted to 20.
For `COc1ccc2c(c1C(=O)O)OB(O)[C@@H]1COC[C@H]21` [Compound 23, (3aS,9bS)-4,4-dihydroxy-7-methoxy-1,3,3a,9b-tetrahydrofuro[3,4-c][1,2]benzoxaborinine-6-carboxylic acid], the Ki in series [1] was < 100 nM; in series [2], < 100 nM; in series [3], < 100 nM; in [4], < 100 nM; in series [5] it was 100 to 1000 nM; in [6], < 100 nM. The figures for the Ki in [9], in [10] and in series [11] were 100 to 1000 nM, < 100 nM and > 1000 nM, respectively. In addition, in series [7], the “PAM1154/KPC-2 Biapenem MPC64” value came to 20. For the same molecule, the “PAM1032/KPC-2 Biapenem MPC64” value in [8] turned out to be 20.
With `O=C(OCOC(=O)c1c(F)ccc2c1OB(O)[C@@H]1C[C@H]21)OC1COC1` [Compound 32, Oxetan-3-yloxycarbonyloxymethyl (1aR,7bS)-5-fluoro-2-hydroxy-1a,7b-dihydro-1H-cyclopropa[c][1,2]benzoxaborinine-4-carboxylate], in series [12], the “% of initial area ratio at t = 0 min” value was determined as 100%, the “% of initial area ratio at t = 5 min” value is reported as 86.8%, the “% of initial area ratio at t = 10 min” value is given as 77.2% and the “% of initial area ratio at t = 30 min” value came out at 38.7%.
Take `Cc1oc(=O)oc1COC(=O)c1c(F)ccc2c1OB(O)[C@@H]1C[C@H]21` [Compound 33, (5-Methyl-2-oxo-1,3-dioxol-4-yl)methyl (1aR,7bS)-5-fluoro-2-hydroxy-1a,7b-dihydro-1H-cyclopropa[c][1,2]benzoxaborinine-4-carboxylate]: in series [12], the “% of initial area ratio at t = 0 min” value is given as 100%, the “% of initial area ratio at t = 5 min” value is 48.4%, the “% of initial area ratio at t = 10 min” value was found to be 15.4% and the “% of initial area ratio at t = 30 min” value came to 0%.
The matching figures for `O=C(OCOC(=O)C1CCOCC1)c1c(F)ccc2c1OB(O)[C@@H]1C[C@H]21` [Compound 39, Tetrahydropyran-4-carbonyloxymethyl (1aR,7bS)-5-fluoro-2-hydroxy-1a,7b-dihydro-1H-cyclopropa[c][1,2]benzoxaborinine-4-carboxylate]: 100%, 69.3%, 59.4% and 41.1%.

For orientation: Ki means the dissociation constant of the complex between target and ligand, obtained from inhibition or displacement.
